In US4407795A, “Inclusion compound of p-hexadecylamino benzoic acid in cyclodextrin and method of use” (American Cyanamid Company, priority 1981, dated 1983):
Entries after “also recorded” stand apart in the source; their conditions may differ.

Tests used:
[1] = in vivo; cited from earlier work
[2] = cited from earlier work
[3] = Luminal narrowing and myocardial blood flow; format: in vivo
Serum lipoproteins = format: in vivo
[4] = Effects on arterial wall / atherosclerotic plaque; format: in vivo
[5] = test system: fatty acyl-CoA: cholesterol acyl transferase (ACAT); experiment: Inhibition of arterial cholesterol-esterifying enzyme; format: biochemical; settings: in words
[6] = rat; cited from earlier work
[7] = mainly as glucose formed by enzymatic hydrolysis; cited from earlier work
[8] = in words; cited from earlier work

N[C@H](Cc1cc(I)c(Oc2cc(I)c(O)c(I)c2)c(I)c1)C(=O)O [D-thyroxine]
lowering blood lipids [1]: effective to varying degrees in lowering blood lipids

O=C(O)c1ccccc1O [salicylic acid]
bioavailability in man as β-cyclodextrin inclusion compound [2]: increased bioavailability

O=C(O)c1cccnc1 [nicotinic acid]
lowering blood lipids [1]: effective to varying degrees in lowering blood lipids

CCOC(=O)C(C)(C)Oc1ccc(Cl)cc1 [clofibrate]
lowering blood lipids [1]: effective to varying degrees in lowering blood lipids

CCCCCCCCCCCCCCCCNc1ccc(C(=O)[O-])cc1.[Na+] [p-hexadecylamino benzoic acid sodium salt]
reduction in the luminal narrowing ([3]; 4 major coronary arteries): 2 fold | luminal narrowing in major peripheral arteries ([3]; major peripheral arteries): Reductions in luminal narrowing are seen in major peripheral arteries as well | myocardial blood flow ([3]; non-stressed and stressed heart): increases in myocardial blood flow in the non-stressed and the stressed heart | high-density lipoprotein in the serum, increase (Serum lipoproteins; in vivo): 2 fold | HDL concentrations (Serum lipoproteins; in words): elevates HDL concentrations | very low-density lipoproteins (Serum lipoproteins; in words): antiatherogenic decrease in the atherogenic very low-density lipoproteins | area and thickness of the plaque (incidence and severity of plaque formation) ([4]; arterial wall): decrease of both the area and the thickness of the plaque | deposition of collagen and elastin ([4]; arterial wall): reduction of deposition of connective-tissue collagen and elastic-fiber elastin | formation of the extracellular matrix and trapping of very low-density lipoproteins ([4]; arterial wall): lowering of the formation of the extracellular matrix and its trapping of very low-density lipoproteins | immobilization of cholesterol in the form of ester ([4]; arterial wall): decreased immobilization of cholesterol in the form of ester | smooth-muscle cell proliferation ([4]; arterial wall): decreased smooth-muscle cell proliferation | calcium deposition ([4]; arterial wall / plaque, sodium salt): reduced calcium deposition; also recorded: minimizes the calcium deposition in the plaque | progression of atherosclerosis ([4]; in words): inhibit the progression of atherosclerosis | inhibition of arterial cholesterol-esterifying enzyme (ACAT) [5]: inhibited by this compound

COc1ccc2c(c1)c(CC(=O)O)c(C)n2C(=O)c1ccc(Cl)cc1 [Indomethacin]
bioavailability with β-cyclodextrin [6]: enhance the bioavailability

OC[C@H]1O[C@@H]2O[C@H]3[C@H](O)[C@@H](O)[C@@H](O[C@H]4[C@H](O)[C@@H](O)[C@@H](O[C@H]5[C@H](O)[C@@H](O)[C@@H](O[C@H]6[C@H](O)[C@@H](O)[C@@H](O[C@H]7[C@H](O)[C@@H](O)[C@@H](O[C@H]8[C@H](O)[C@@H](O)[C@@H](O[C@H]1[C@H](O)[C@H]2O)O[C@@H]8CO)O[C@@H]7CO)O[C@@H]6CO)O[C@@H]5CO)O[C@@H]4CO)O[C@@H]3CO [β-cyclodextrin]
absorbed by man upon oral administration [7]: less than 0.01% | toxicity [8]: lack of toxicity

CCCCCCCCCCCCCCCCCC(=O)O [stearic acid]
bioavailability with β-cyclodextrin [6]: enhance the bioavailability
